Reference: patent US12441751B2, “Metabolic labeling and molecular enhancement of biological materials using bioorthogonal reactions” (priority 2016, dated 2025)
Entries after “also recorded” stand apart in the source; their conditions may differ.

Legend:
[1] = Copper-free click reaction of DBCO-activated biotin on donor lung during cold preservation; design: species or system rat; settings: DBCO-activated biotin 100 μM in Perfadex on ice, within one hour
Protocol: The procedure involves two steps. In the first step, the donor rat was injected with Ac4GalNAz for three days (as described in Example 4). This allowed for metabolic labeling of the donor lung with azido tags. In the second step, the donor lung with azido labeling was preserved in preservation solution (Perfadex) containing DBCO-activated biotin at 100 μM concentration on ice for 1 hour. The lung was then intensively washed with preservation solution (Perfadex) and prepared for transplantation. The lung is fixed for histological staining of the immobilized biologically active molecule (as exemplified by biotin).
DBCO-activated biotin was used a proof-of-principle.

rat lung ECM = assay: Ex vivo metabolic engineering of rat lung ECM; settings: 50 μM, one day, bioreactor perfusion 5 ml/min, Cu(I) catalyst in click with biotin-alkyne
Protocol: For ex vivo metabolic engineering of the rat lung, the lung was freshly harvested from a male Sprague-Dawley rat (100-125 g). The isolated rat lung was cultured in 100 ml of DMEM/F12 medium containing 10% fetal bovine serum (DMEM/F12-FBS), with the supplementation of Ac4GalNAz (50 μM) or DMSO (0.1%), for 24 hours in a bioreactor under constant rate perfusion (5 ml/min) through the PA, followed by perfusion decellularization as described above.
All samples were fixed with 4% paraformaldehyde (Boston BioProducts), paraffin-embedded, and sectioned at 5-μm thickness. Following deparaffinization, rehydration and antigen retrieval using Antigen Unmasking Solution (Vector Laboratories), the sections were processed for either on-section click reaction or regular histological staining. […] For regular histological staining of biotin and Laminin, the sections were incubated with Rabbit-anti-Laminin antibody (Abcam, ab11575, 1:200) overnight at 4° C., followed by staining with Alexa Fluor 488-conjugated Donkey-anti-Rabbit antibody (A-21206, 1:500) and Alexa Fluor 647-conjugated Streptavidin (Life Technologies, S-32357, 1:500). […] The fluorescence intensity of Azide-Biotin-Streptavidin and Laminin staining was quantified using ImageJ (NIH). […]
The presence of azide labeling in the decellularized scaffolds were evaluated by performing copper-catalyzed click reaction. […]

[2] = test system: acellular porcine lung ECM; assay: Ex vivo metabolic engineering of porcine left lung ECM; settings: 50 μM, one day, perfusion 300 ml/min
Protocol: For ex vivo metabolic engineering of the porcine lung, the left lung was freshly isolated from a male Yorkshire swine (18-20 kg, Tufts University). The isolated porcine left lung was cultured DMEM/F12-FBS medium, with the supplementation of Ac4GalNAz (50 μM) or DMSO (0.1%), for 24 hours in a bioreactor under constant rate perfusion (300 ml/min) through the left main PA. 3 L of medium was initially used and was refreshed once with another 2 L of medium after the initial 16 hours of culture. A parallel oxygenation loop was used during the culture at a flow rate of 150 ml/min. Following culture, the porcine left lung was decellularized by sequential single-pass perfusion through the left main PA with 0.5% SDS, distilled water, 1% Triton X and PBS, adapted from a previously described method (Zhou, H. et al. Bioengineering Human Lung Grafts on Porcine Matrix. Annals of Surgery Publish Ahead of Print (2017)). […] The fluorescence intensity of Azide-Biotin-Streptavidin and Laminin staining was quantified using ImageJ (NIH). […] Following BCA quantification, the protein samples were analyzed using SDS-PAGE under reducing condition, transferred to nitrocellulose blotting membranes, and incubated with primary antibodies overnight at 4° C., followed by incubation with HRP-conjugated secondary antibodies for 1 hour at room temperature before autoradiography. […]

[3] = test system: decellularized rat lung scaffolds; assay: In vivo metabolic labeling of rat lung ECM with azide-labeled sugars
Protocol: All animal experiments were approved by the Massachusetts General Hospital Institutional Animal Care and Use Committee and performed in compliance with the Animal Welfare Act. Male Sprague-Dawley rats (100-125 g, Charles River Laboratories) was administered with metabolic labeling reagents (Ac4GalNAz, Ac4GlcNAz or Ac4ManNAz) (30 mg/day, Click Chemistry Tools) via intraperitoneal injection daily for three days. […] Decellularized organ and tissue scaffolds were washed sequentially with distilled water, 1% Triton X and PBS.
(§1) All samples were fixed with 4% paraformaldehyde (Boston BioProducts), paraffin-embedded, and sectioned at 5-μm thickness. Following deparaffinization, rehydration and antigen retrieval using Antigen Unmasking Solution (Vector Laboratories), the sections were processed for either on-section click reaction or regular histological staining. For on-section click reaction, sections of acellular organ scaffolds derived from in vivo or ex vivo metabolic engineering were incubated with Biotin-Alkyne click reaction mix, with and without copper (II) sulfate, for 1 hour at room temperature, followed by extensive washing with PBS. For regular histological staining of biotin and Laminin, the sections were incubated with Rabbit-anti-Laminin antibody (Abcam, ab11575, 1:200) overnight at 4° C., followed by staining with Alexa Fluor 488-conjugated Donkey-anti-Rabbit antibody (A-21206, 1:500) and Alexa Fluor 647-conjugated Streptavidin (Life Technologies, S-32357, 1:500). Images were acquired using a Nikon Eclipse TE200 microscope and NIS-Elements imaging software. The fluorescence intensity of Azide-Biotin-Streptavidin and Laminin staining was quantified using ImageJ (NIH).
To conjugate Biotin-Alkyne onto the azide-labeled acellular lung ECM for Western blot analysis, a small piece of lung tissue was homogenized with gentleMACS Dissociator (Miltenyi Biotec) in PBS, and incubated with 1 ml Biotin-Alkyne click reaction mix for 1 hour at room temperature, followed by extensive washing in PBS. The ECM proteins from the clicked lung tissue was extracted using urea buffer as described below. […] Following BCA quantification, the protein samples were analyzed using SDS-PAGE under reducing condition, transferred to nitrocellulose blotting membranes, and incubated with primary antibodies overnight at 4° C., followed by incubation with HRP-conjugated secondary antibodies for 1 hour at room temperature before autoradiography. […]

[4] = test system: decellularized scaffolds of the rat carotid artery, heart, liver, kidney and skin; assay: In vivo metabolic labeling of ECM of other rat organs/tissues
Protocol: Male Sprague-Dawley rats (100-125 g, Charles River Laboratories) was administered with metabolic labeling reagents (Ac4GalNAz, Ac4GlcNAz or Ac4ManNAz) (30 mg/day, Click Chemistry Tools) via intraperitoneal injection daily for three days. […] Full-thickness skin grafts were harvested from the abdomen of the animal and decellularized by immersion with agitation in 1% SDS. Decellularized organ and tissue scaffolds were washed sequentially with distilled water, 1% Triton X and PBS.
as §1
For metabolic engineering of organs/tissues in vivo in the rat model, azide-labeled sugars (300 mg/kg body weight in 70% DMSO) were administered through intraperitoneal injection daily. One day after the last azide-labeled sugar administration, organs/tissues were harvested and perfusion decellularized (See FIGS. 1 and 13). The presence of azide labeling in the decellularized scaffolds were evaluated by performing copper-catalyzed click reaction. […]

[5] = Click reaction of azide-labeled decellularized rat epigastric flaps with Vancomycin-alkyne; settings: Ac4GalNAz-labeled REF versus DMSO control, Vancomycin-alkyne 100 μM click
Protocol: Vancomycin is made clickable by conjugating an alkyne group to the only primary amine present as described above (see, e.g., FIG. 22, Example 3). The structure of the resulting clickable vancomycin-alkyne was confirmed by LC-MS/MS analysis (FIG. 23). Using the previously described click reaction, Vancomycin was immobilized onto the ECM. Copper-catalyzed click reaction was performed on decellularized rat epigastric flaps by perfusion (0.5 ml/min) using Vancomycin-alkyne (100 μM) and Click-iT® Cell Reaction Buffer Kit (ThermoFisher, Catalog number: C10269) for one hour at room temperature, followed by intensive washing and detection of immobilized vancomycin using a vancomycin-specific antibody.

## O=C(O)CCCC[C@@H]1SC[C@@H]2NC(=O)N[C@@H]21 [biotin]
[1]
  immobilization of biotin onto donor lung tissue: high efficiency

## CC(=O)OC[C@H]1OC(OC(C)=O)[C@H](NC(=O)CN=[N+]=[N-])[C@@H](OC(C)=O)[C@H]1OC(C)=O (stereo partly shown) [Ac4GalNAz, tetraacylated N-azidoacetylgalactosamine]
Rat lung ECM
  azide labeling of the lung ECM after ex vivo culture: robust covalent azide labeling
[2]
  azide incorporation into acellular porcine lung ECM after ex vivo culture: specific and covalent azide incorporation
[3]; 3 days of metabolic labeling in donor rats, comparing to Ac4GlcNAz and Ac4ManNAz
  metabolic labeling efficiency of decellularized rat lung scaffolds: superior labeling efficiency
[3]; after click conjugation with biotin-alkyne
  biotin labeling of isolated lung ECM proteins by western blot: abundance of biotin labeling
[3]; azide-biotin-streptavidin intensity normalized to Laminin, compared with Ac4ManNAz and Ac4GlcNAz
  metabolic azide labeling intensity in acellular lungs: strongest
[4]; rat carotid artery, heart, liver, kidney and skin, three-day intraperitoneal administration
  in vivo metabolic azide labeling of decellularized scaffolds: efficient; also recorded: strong and specific ECM labeling
[4]; rat, 3 days of metabolic labeling
  metabolic labeling of decellularized scaffolds of blood vessels and skin flaps: efficient metabolic labeling

## CN[C@H](CC(C)C)C(=O)N[C@H]1C(=O)N[C@@H](CC(N)=O)C(=O)N[C@H]2C(=O)N[C@H]3C(=O)N[C@H](C(=O)N[C@H](C(=O)O)c4cc(O)cc(O)c4-c4cc3ccc4O)[C@H](O)c3ccc(c(Cl)c3)Oc3cc2cc(c3O[C@@H]2O[C@H](CO)[C@@H](O)[C@H](O)[C@H]2O[C@H]2C[C@](C)(N)[C@H](O)[C@H](C)O2)Oc2ccc(cc2Cl)[C@H]1O [vancomycin, Vancomycin]
[5]; p<0.001
  vancomycin staining fluorescence intensity on whole mount REF: increase
[5]; p<0.05
  vancomycin staining fluorescence intensity on REF cross-sections: increase
